Experimental data taken from patent US20110182850A1, “ORGANIC COMPOUNDS AND THEIR USES” (priority 2009, published 2011).

target: T1, HCV NS3-4A serine protease (full-length NS3-4A protein, genotype 1a, strain HCV-1) (Hepatitis C virus genotype 1a, UniProt P26664); test: HCV NS3-4A protease assay; type: biochemical; conditions: Protease IC50
T1 construct: using the full-length NS3-4A protein (genotype 1a, strain HCV-1)
Description: The inhibitory activity of certain compounds of Table A against HCV NS3-4A serine protease is determined in a homogenous assay using the full-length NS3-4A protein (genotype 1a, strain HCV-1) and a commercially available internally-quenched fluorogenic peptide substrate as described by Taliani, M., et al. 1996 Anal. Biochem. 240:60-67, which is incorporated by reference in its entirety.

T1 sequence (P26664 1658-1711): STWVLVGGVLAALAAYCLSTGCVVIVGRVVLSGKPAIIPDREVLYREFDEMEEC
T1 sequence (P26664 1027-1657): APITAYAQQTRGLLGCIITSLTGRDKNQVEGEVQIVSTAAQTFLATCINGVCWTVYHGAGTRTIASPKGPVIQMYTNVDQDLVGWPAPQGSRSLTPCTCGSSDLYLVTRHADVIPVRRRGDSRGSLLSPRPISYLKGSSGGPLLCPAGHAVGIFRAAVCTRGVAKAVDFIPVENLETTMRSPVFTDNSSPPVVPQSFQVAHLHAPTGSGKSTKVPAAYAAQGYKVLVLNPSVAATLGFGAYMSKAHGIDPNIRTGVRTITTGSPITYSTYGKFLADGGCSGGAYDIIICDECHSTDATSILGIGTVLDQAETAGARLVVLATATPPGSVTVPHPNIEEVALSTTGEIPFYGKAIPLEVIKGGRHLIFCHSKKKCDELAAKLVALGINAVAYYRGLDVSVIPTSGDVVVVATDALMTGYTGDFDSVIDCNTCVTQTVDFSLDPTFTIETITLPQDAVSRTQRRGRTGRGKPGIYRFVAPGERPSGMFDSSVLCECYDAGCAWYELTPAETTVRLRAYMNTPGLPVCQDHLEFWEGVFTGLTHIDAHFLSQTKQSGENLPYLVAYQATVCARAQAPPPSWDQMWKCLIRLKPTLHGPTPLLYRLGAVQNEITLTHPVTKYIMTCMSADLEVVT

`C=C[C@@H]1C[C@]1(NC(=O)[C@@H]1C[C@@]2(CN1C(=O)[C@@H](NC(=O)[C@@H](NC(=O)c1cnccn1)C1CCCCC1)C(C)(C)C)C(C)(C)C21CCC1)C(=O)NS(=O)(=O)C1(C)CC1` [Compound 64, (5R,8S)-7-[(2S)-2-({(2S)-2-cyclohexyl-2-[(pyrazin-2-ylcarbonyl)amino]acetyl}amino)-3,3-dimethylbutanoyl]-10,10-dimethyl-N-[(1R,2S)-1-{[(1-methylcyclopropyl)sulfonyl]carbamoyl}-2-vinylcyclopropyl]-7-azadispiro[3.0.4.1]decane-8-carboxamide] and `C=C[C@@H]1C[C@]1(NC(=O)[C@@H]1C[C@@]2(CN1C(=O)[C@@H](NC(=O)[C@@H](NC(=O)[C@@H]1CCCN1C(C)C)C1CCCCC1)C(C)(C)C)C(C)(C)C21CCC1)C(=O)NS(=O)(=O)C1(C)CC1` [Compound 72, (5R,8S)-7-[(2S)-2-{[(2S)-2-cyclohexyl-2-({[(2S)-1-isopropylpyrrolidin-2-yl]carbonyl}amino)acetyl]amino}-3,3-dimethylbutanoyl]-10,10-dimethyl-N-[(1R,2S)-1-{[(1-methylcyclopropyl)sulfonyl]carbamoyl}-2-vinylcyclopropyl]-7-azadispiro[3.0.4.1]decane-8-carboxamide] are within 1.5-fold of each other in IC50: 1.5 nM for the first, 2 nM for the second.

Compared with `C=C[C@@H]1C[C@]1(NC(=O)[C@@H]1C[C@@]2(CN1C(=O)[C@@H](NC(=O)[C@@H](NC(=O)[C@@H]1CCCCN1C(C)C)C1CCCCC1)C(C)(C)C)C(C)(C)C21CCC1)C(=O)NS(=O)(=O)C1(CC)CC1` [Compound 66, (5R,8S)-7-[(2S)-2-{[(2S)-2-cyclohexyl-2-({[(2S)-1-isopropylpiperidin-2-yl]carbonyl}amino)acetyl]amino}-3,3-dimethylbutanoyl]-N-[(1R,2S)-1-{[(1-ethylcyclopropyl)sulfonyl]carbamoyl}-2-vinylcyclopropyl]-10,10-dimethyl-7-azadispiro[3.0.4.1]decane-8-carboxamide], `C=C[C@@H]1C[C@]1(NC(=O)[C@@H]1C[C@@]2(CN1C(=O)[C@@H](NC(=O)[C@@H](NC(=O)[C@@H]1CCCCN1CC)C1CCCCC1)C(C)(C)C)C(C)(C)C21CCC1)C(=O)NS(=O)(=O)C1(C)CC1` [Compound 73, (5R,8S)-7-[(2S)-2-{[(2S)-2-cyclohexyl-2-({[(2S)-1-ethylpiperidin-2-yl]carbonyl}amino)acetyl]amino}-3,3-dimethylbutanoyl]-10,10-dimethyl-N-[(1R,2S)-1-{[(1-methylcyclopropyl)sulfonyl]carbamoyl}-2-vinylcyclopropyl]-7-azadispiro[3.0.4.1]decane-8-carboxamide] is 1.7-fold higher in IC50: 1.8 nM for the first, 3 nM for the second. The first is the more potent here.

`C=C[C@@H]1C[C@]1(NC(=O)[C@@H]1C[C@@]2(CN1C(=O)[C@@H](NC(=O)[C@@H](NC(=O)[C@@H]1CCCCN1C(C)C)C1CCCCC1)C(C)(C)C)C(C)(C)C21CCC1)C(=O)NS(=O)(=O)C(F)(F)F` [Compound 78, (5R,8S)-7-[(2S)-2-{[(2S)-2-cyclohexyl-2-({[(2S)-1-isopropylpiperidin-2-yl]carbonyl}amino)acetyl]amino}-3,3-dimethylbutanoyl]-10,10-dimethyl-N-[(1R,2S)-1-{[(trifluoromethyl)sulfonyl]carbamoyl}-2-vinylcyclopropyl]-7-azadispiro[3.0.4.1]decane-8-carboxamide] and `C=C[C@@H]1C[C@]1(NC(=O)[C@@H]1C[C@@]2(CN1C(=O)[C@@H](NC(=O)[C@@H](NC(=O)[C@@H]1CCCCN1CC)C1CCCCC1)C(C)(C)C)C(C)(C)C21CCC1)C(=O)NS(=O)(=O)C(F)(F)F` [Compound 79, (5R,8S)-7-[(2S)-2-{[(2S)-2-cyclohexyl-2-({[(2S)-1-ethylpiperidin-2-yl]carbonyl}amino)acetyl]amino}-3,3-dimethylbutanoyl]-10,10-dimethyl-N-[(1R,2S)-1-{[(trifluoromethyl)sulfonyl]carbamoyl}-2-vinylcyclopropyl]-7-azadispiro[3.0.4.1]decane-8-carboxamide] are within 1.5-fold of each other in IC50: 2.5 nM for the first, 2 nM for the second.

First: C=C[C@@H]1C[C@]1(NC(=O)[C@@H]1C[C@@]2(CN1C(=O)[C@@H](NC(=O)[C@@H](NC(=O)[C@@H]1CCCCN1C(C)C)C1CCCCC1)C(C)(C)C)C(C)(C)C21CCC1)C(=O)NS(=O)(=O)C1CCCC1 [Compound 80, (5R,8S)-7-[(2S)-2-{[(2S)-2-cyclohexyl-2-({[(2S)-1-isopropylpiperidin-2-yl]carbonyl}amino)acetyl]amino}-3,3-dimethylbutanoyl]-N-{(1R,2S)-1-[(cyclopentylsulfonyl)carbamoyl]-2-vinylcyclopropyl}-10,10-dimethyl-7-azadispiro[3.0.4.1]decane-8-carboxamide]
Second: CC(C)N1CCCC[C@H]1C(=O)N[C@H](C(=O)N[C@H](C(=O)N1C[C@]2(C[C@H]1C(=O)NC1(C(=O)NS(=O)(=O)C3CC3)CCCC1)C(C)(C)C21CCC1)C(C)(C)C)C1CCCCC1 [Compound 84, (5R,8S)-7-[(2S)-2-{[(2S)-2-cyclohexyl-2-({[(2S)-1-isopropylpiperidin-2-yl]carbonyl}amino)acetyl]amino}-3,3-dimethylbutanoyl]-N-{1-[(cyclopropylsulfonyl)carba-moyl]cyclopentyl}-10,10-dimethyl-7-azadispiro[3.0.4.1]decane-8-carboxamide]
The IC50 of the first is 10-fold lower: 10 nM for the first, 100 nM for the second.

Compound `C=CCC(C)(NC(=O)[C@@H]1C[C@@]2(CN1C(=O)[C@@H](NC(=O)[C@@H](NC(=O)[C@@H]1CCCCN1C(C)C)C(C)(C)C)C(C)(C)C)C(C)(C)C21CCC1)C(=O)NS(=O)(=O)C1CC1` (stereo partly drawn) [Compound 85, (5R,8S)-N-{1-[(cyclopropylsulfonyl)carba-moyl]-1-methylbut-3-en-1-yl}-7-[(2S)-2-{[(2S)-2-({[(2S)-1-isopropylpiperidin-2-yl]carbonyl}amino)-3,3-dimethylbutanoyl]amino}-3,3-dimethylbutanoyl]-10,10-dimethyl-7-azadispiro[3.0.4.1]decane-8-carboxamide] has an IC50 of 7630 nM.
Work on `C=CCC(C)(NC(=O)[C@@H]1C[C@@]2(CN1C(=O)[C@@H](NC(=O)[C@@H](NC(=O)[C@@H]1CCCCN1C(C)C)C(C)(C)C)C(C)(C)C)C(C)(C)C21CCC1)C(=O)NS(=O)(=O)C1CC1` (stereo partly drawn) [Compound 86, (5R,8S)-N-{1-[(cyclopropylsulfonyl)carba-moyl]-1-methylbut-3-en-1-yl}-7-[(2S)-2-{[(2S)-2-({[(2S)-1-isopropylpiperidin-2-yl]carbonyl}amino)-3,3-dimethylbutanoyl]amino}-3,3-dimethylbutanoyl]-10,10-dimethyl-7-azadispiro[3.0.4.1]decane-8-carboxamide] yielded an IC50 of 4050 nM.

same assay, conditions: read-out: Protease IC50

Work on `C=C[C@@H]1C[C@]1(NC(=O)[C@@H]1C[C@@]2(CN1C(=O)[C@@H](NC(=O)[C@@H](CC(=O)N(C)C)C(C)(C)C)C(C)(C)C)C(C)(C)C21CCC1)C(=O)NS(=O)(=O)C1CC1` [Compound 65, (2S)-2-tert-butyl-N1-[(1S)-1-{[(5R,8S)-8-({(1R,2S)-1-[(cyclopropylsulfonyl)carba-moyl]-2-vinylcyclopropyl}carbamoyl)-10,10-dimethyl-7-azadispiro[3.0.4.1]dec-7-yl]carbonyl}-2,2-dimethylpropyl]-N4,N4-dimethylsuccinamide] yielded an IC50 of 70 nM.
